Patent US20210189342A1, “COMPOSITIONS AND METHODS FOR MODULATING MONOCYTE AND MACROPHAGE INFLAMMATORY PHENOTYPES AND IMMUNOTHERAPY USES THEREOF” (Verseau Therapeutics, Inc., priority 2018, published 2021)

Each substance was assayed on SELPLG (assay: siRNA dose response, SELPLG mRNA knockdown, bDNA Assay). Settings: THP-1, 24 hr.
Format: cell-based, human
Method: (§1) Dose response curves for siRNAs were generated in vitro using a variety of cell lines according to Table 4.
(§2) Briefly, cells were seeded in 96-well plates and reverse transfected with siRNA, Lipofectamine® 2000 (0.5 uL/well; ThermoFisher), and, in some cases, a reporter plasmid (50 ng/well). The reporter plasmid (psiCHECK™-2, Promega) encoded both firefly luciferase and the gene of interest fused to renilla luciferase; silencing of the gene of interest results in proportional silencing of renilla luciferase but leaves firefly luciferase unaffected as an internal control.
(§3) After 24 hr incubation at 37° C., mRNA knockdown was measured using an endpoint assay. For targets without a reporter plasmid, a branched DNA (bDNA) assay was performed according to the manufacturer's instructions (QuantiGene® Singleplex Gene Expression Assay, ThermoFisher) to measure both the target gene and GAPDH (housekeeping gene) mRNA. Data are plotted as siRNA concentration (nM) vs. remaining mRNA (ratio of target gene to GAPDH, normalized to mock siRNA-transfected cells). For targets with a reporter plasmid, a Dual-Glo® Luciferase Assay was performed according to the manufacturer's instructions (Promega) to measure firefly and renilla luciferase expression. Data are plotted as siRNA concentration (nM) vs. remaining mRNA (ratio of renilla to firefly luminescence, normalized to mock siRNA-transfected cells).
(§4) For all dose response curves, a 4-parameter logistic model was applied to determine the IC50 of each siRNA sequence (Table 5 and FIG. 2). Data shown in Table 5 and FIG. 2 represent the mean of quadruplicates, +/−standard deviation.
In the case of “XD-09261: siRNA targeting SELPLG (sense 5'-ccAccGAAuAUGAguAccudTsdT-3'; antisense 5'-AGGuACUcAuAUUCGGUGGdTsdT-3'; as printed in the source, key not given here)”, the IC50 is reported as 0.386 nM.
Work on “XD-09262: siRNA targeting SELPLG (sense 5'-ccGAAuAuGAGuAccuAGAdTsdT-3'; antisense 5'-UCuAGGuACUcAuAUUCGGdTsdT-3'; as printed in the source, key not given here)” yielded an IC50 of 1.35 nM.
In the case of “XD-09263: siRNA targeting SELPLG (sense 5'-gcAcAGAccAcucaAcccAdTsdT-3'; antisense 5'-UGGGUUGAGUGGUCUGUGCdTsdT-3'; as printed in the source, key not given here)”, the IC50 is reported as 2.96 nM.
“XD-09264: siRNA targeting SELPLG (sense 5'-accAAAAGAGGucuGuucAdTsdT-3'; antisense 5'-UGAAcAGACCUCUUUUGGUdTsdT-3'; as printed in the source, key not given here)” showed an IC50 of 1.96 nM.

What follows are substances tested on CD37 (assay: siRNA dose response, CD37 mRNA knockdown, bDNA Assay). Settings: THP-1, 24 hr.
Format: cell-based, human
Method: as §1, §2, §3, §4
Substance “XD-09778: siRNA targeting CD37 (sense 5'-cgGcucGcucGAuaccGuudTsdT-3'; antisense 5'-AACGGuAUCGAGCGAGCCGdTsdT-3'; RNA with 2'-O-methyl and phosphorothioate modifications, case key not given here, as printed in the source, key not given here)” has an IC50 of 11.4 nM.
With “XD-09779: siRNA targeting CD37 (sense 5'-accAcccAcAAGAuuAuuudTsdT-3'; antisense 5'-AAAuAAUCUUGUGGGUGGUdTsdT-3'; RNA with 2'-O-methyl and phosphorothioate modifications, case key not given here, as printed in the source, key not given here)” the IC50 was < 0.005 nM.

These substances were tested on EVI2B (assay: siRNA dose response, EVI2B mRNA knockdown, bDNA Assay). Settings: A172, 24 hr.
Format: cell-based, human
Method: as §1, §2, §3, §4
Substance “XD-10481: siRNA targeting EVI2B (sense 5'-cuuuGGGucAAccaAcAcAdTsdT-3'; antisense 5'-UGUGUUGGUUGACCcAAAGdTsdT-3'; RNA with 2'-O-methyl and phosphorothioate modifications, case key not given here, as printed in the source, key not given here)” has an IC50 of 0.169 nM.
For “XD-10482: siRNA targeting EVI2B (sense 5'-caAccAAcAccAAuAGccAdTsdT-3'; antisense 5'-UGGCuAUUGGUGUUGGUUGdTsdT-3'; RNA with 2'-O-methyl and phosphorothioate modifications, case key not given here, as printed in the source, key not given here)”, the IC50 was 0.017 nM.
With “XD-10483: siRNA targeting EVI2B (sense 5'-ccAucuGcccGuAcuucuAdTsdT-3'; antisense 5'-uAGAAGuACGGGcAGAUGGdTsdT-3'; RNA with 2'-O-methyl and phosphorothioate modifications, case key not given here, as printed in the source, key not given here)” the IC50 was 3.27 nM.
With “XD-10484: siRNA targeting EVI2B (sense 5'-ccAccAAAGucAuuuGucudTsdT-3'; antisense 5'-AGAcAAAUGACUUUGGUGGdTsdT-3'; RNA with 2'-O-methyl and phosphorothioate modifications, case key not given here, as printed in the source, key not given here)” the IC50 was 0.014 nM.
For “XD-10485: siRNA targeting EVI2B (sense 5'-gucAAAAAuucAccuAGGAdTsdT-3'; antisense 5'-UCCuAGGUGAAUUUUUGACdTsdT-3'; RNA with 2'-O-methyl and phosphorothioate modifications, case key not given here, as printed in the source, key not given here)”, the IC50 was 1.38 nM.
Substance “XD-10486: siRNA targeting EVI2B (sense 5'-ggAuuuAucuuAGauAcuAdTsdT-3'; antisense 5'-uAGuAUCuAAGAuAAAUCCdTsdT-3'; RNA with 2'-O-methyl and phosphorothioate modifications, case key not given here, as printed in the source, key not given here)” has an IC50 of 0.225 nM.
For “XD-10487: siRNA targeting EVI2B (sense 5'-cauAcuAAuuGGuguAcuudTsdT-3'; antisense 5'-AAGuAcACcAAUuAGuAUGdTsdT-3'; RNA with 2'-O-methyl and phosphorothioate modifications, case key not given here, as printed in the source, key not given here)”, the IC50 was 0.156 nM.
For “XD-10488: siRNA targeting EVI2B (sense 5'-agcuAuAAucAucauuGuAdTsdT-3'; antisense 5'-uAcAAUGAUGAUuAuAGCUdTsdT-3'; RNA with 2'-O-methyl and phosphorothioate modifications, case key not given here, as printed in the source, key not given here)”, the IC50 was 2.55 nM.
With “XD-10489: siRNA targeting EVI2B (sense 5'-cucccAAcucuGAucAAGAdTsdT-3'; antisense 5'-UCUUGAUcAGAGUUGGGAGdTsdT-3'; RNA with 2'-O-methyl and phosphorothioate modifications, case key not given here, as printed in the source, key not given here)” the IC50 was 0.013 nM.

The substances below were run on TBXAS1 (assay: siRNA dose response, TBXAS1 mRNA knockdown, bDNA Assay). Settings: A549, 24 hr.
Format: cell-based, human
Method: as §1, §2, §3, §4
In the case of “XD-10490: siRNA targeting TBXAS1 (sense 5'-gccGAcAGcGuucuGuuuudTsdT-3'; antisense 5'-AAAAcAGAACGCUGUCGGCdTsdT-3'; RNA with 2'-O-methyl and phosphorothioate modifications, case key not given here, as printed in the source, key not given here)”, the IC50 is reported as 0.573 nM.
“XD-10491: siRNA targeting TBXAS1 (sense 5'-cuGcAAGcGuuucuucGAAdTsdT-3'; antisense 5'-UUCGAAGAAACGCUUGcAGdTsdT-3'; RNA with 2'-O-methyl and phosphorothioate modifications, case key not given here, as printed in the source, key not given here)” showed an IC50 of 0.048 nM.
With “XD-10492: siRNA targeting TBXAS1 (sense 5'-gcccGGAuuuuGcccAAuAdTsdT-3'; antisense 5'-uAUUGGGcAAAAUCCGGGCdTsdT-3'; RNA with 2'-O-methyl and phosphorothioate modifications, case key not given here, as printed in the source, key not given here)” the IC50 was 1.44 nM.
Work on “XD-10493: siRNA targeting TBXAS1 (sense 5'-ggAuuuuGcccAAuAAGAAdTsdT-3'; antisense 5'-UUCUuAUUGGGcAAAAUCCdTsdT-3'; RNA with 2'-O-methyl and phosphorothioate modifications, case key not given here, as printed in the source, key not given here)” yielded an IC50 of 0.239 nM.
For “XD-10494: siRNA targeting TBXAS1 (sense 5'-caAuAAGAAccGAgAcGAAdTsdT-3'; antisense 5'-UUCGUCUCGGUUCUuAUUGdTsdT-3'; RNA with 2'-O-methyl and phosphorothioate modifications, case key not given here, as printed in the source, key not given here)”, the IC50 was 0.049 nM.
“XD-10495: siRNA targeting TBXAS1 (sense 5'-gaAccGAGAcGAAcuGAAudTsdT-3'; antisense 5'-AUUcAGUUCGUCUCGGUUCdTsdT-3'; RNA with 2'-O-methyl and phosphorothioate modifications, case key not given here, as printed in the source, key not given here)” was tested, and the IC50 was 0.125 nM.
“XD-10496: siRNA targeting TBXAS1 (sense 5'-agAcGAAcuGAAugGcuuudTsdT-3'; antisense 5'-AAAGCcAUUcAGUUCGUCUdTsdT-3'; as printed in the source, key not given here)” was tested, and the IC50 was 0.061 nM.
In the case of “XD-10497: siRNA targeting TBXAS1 (sense 5'-ccAuGGGcGuGcAaGAcuudTsdT-3'; antisense 5'-AAGUCUUGcACGCCcAUGGdTsdT-3'; RNA with 2'-O-methyl and phosphorothioate modifications, case key not given here, as printed in the source, key not given here)”, the IC50 is reported as 0.137 nM.
Work on “XD-10498: siRNA targeting TBXAS1 (sense 5'-gcGuGcAAGAcuuuGAcAudTsdT-3'; antisense 5'-AUGUcAAAGUCUUGcACGCdTsdT-3'; RNA with 2'-O-methyl and phosphorothioate modifications, case key not given here, as printed in the source, key not given here)” yielded an IC50 of 0.273 nM.
